Tests used:
Assay type in all cases: functional
[1] = test system: SR; experiment: Growth inhibition of human SR cells after 48 hrs by SRB assay
[2] = test system: A549; experiment: Growth inhibition of human A549/ATCC cells after 48 hrs by SRB assay; settings: A549, 48 h
[3] = test system: HCC 2998; experiment: Growth inhibition of human HCC2998 cells after 48 hrs by SRB assay; settings: HCC 2998, 48 h
[4] = test system: HCT-116; experiment: Growth inhibition of human HCT116 cells after 48 hrs by SRB assay; settings: HCT-116, 48 h
[5] = test system: SF-295; experiment: Growth inhibition of human SF295 cells after 48 hrs by SRB assay; settings: SF-295, 48 h
[6] = test system: SNB-75; experiment: Growth inhibition of human SNB75 cells after 48 hrs by SRB assay; settings: SNB-75, 48 h
[7] = test system: LOX IMVI; experiment: Growth inhibition of human LOXIMVI cells after 48 hrs by SRB assay
[8] = test system: SK-MEL-5; experiment: Growth inhibition of human SK-MEL-5 cells after 48 hrs by SRB assay; settings: SK-MEL-5, 48 h
[9] = test system: UACC-62; experiment: Growth inhibition of human UACC62 cells after 48 hrs by SRB assay; settings: UACC-62, 48 h
[10] = test system: A498; experiment: Growth inhibition of human A498 cells after 48 hrs by SRB assay; settings: A498, 48 h
[11] = test system: CAKI-1; experiment: Growth inhibition of human Caki1 cells after 48 hrs by SRB assay; settings: CAKI-1, 48 h
[12] = test system: SN12C; experiment: Growth inhibition of human SN12C cells after 48 hrs by SRB assay
[13] = test system: PC-3; experiment: Growth inhibition of human PC3 cells after 48 hrs by SRB assay; settings: PC-3, 48 h
[14] = test system: MDA-MB-468; experiment: Growth inhibition of human MDA-MB-468 cells after 48 hrs by SRB assay; settings: MDA-MB-468, 48 h
[15] = read-out: LC50 (the source's name)

Compound: O=C(CO[N+](=O)[O-])Nc1ccc(C(=O)/C=C/c2ccc(Cl)cc2)cc1
- GI50 [1]: 3.64 µM
- TGI [1]: > 100 µM
- CC50 [1, 15]: > 100 µM
- GI50 [2]: 5.71 µM
- TGI [2]: 20.6 µM
- CC50 [2, 15]: 57.9 µM
- GI50 [3]: 1.75 µM
- TGI [3]: 3.64 µM
- CC50 [3, 15]: 7.57 µM
- GI50 [4]: 0.3 µM
- TGI [4]: 1.09 µM
- CC50 [4, 15]: 3.55 µM
- GI50 [5]: 5.82 µM
- TGI [5]: 29.2 µM
- CC50 [5, 15]: > 100 µM
- GI50 [6]: 3.19 µM
- TGI [6]: 17.6 µM
- CC50 [6, 15]: 47.6 µM
- GI50 [7]: 1.59 µM
- TGI [7]: 3.51 µM
- CC50 [7, 15]: 7.74 µM
- GI50 [8]: 4.23 µM
- TGI [8]: 15.4 µM
- CC50 [8, 15]: 39.8 µM
- GI50 [9]: 2.76 µM
- TGI [9]: 11 µM
- CC50 [9, 15]: 51.3 µM
- GI50 [10]: 15.4 µM
- TGI [10]: 54.9 µM
- CC50 [10, 15]: > 100 µM
- GI50 [11]: 11.8 µM
- TGI [11]: 54.5 µM
- CC50 [11, 15]: > 100 µM
- GI50 [12]: 3.15 µM
- TGI [12]: 14.1 µM
- CC50 [12, 15]: 49.6 µM
- GI50 [13]: 2.74 µM
- TGI [13]: 14.8 µM
- CC50 [13, 15]: 72.9 µM
- GI50 [14]: 2.06 µM
- TGI [14]: 5.07 µM
- CC50 [14, 15]: 17.1 µM

Source: ChEMBL document CHEMBL2040759, “Design, synthesis and anticancer activity of nitric oxide donating/chalcone hybrids” (2012)
